Blank lines part the entries; values can stand above or below the molecule they belong to.
Tests used:
[1] = biological target: T1, Human Serum Albumin (HSA) (Homo sapiens, UniProt P02768); experiment: K-37 fluorescence with HSA with and without octanoate, blocking of HSA (Example 2)
LDL [2] = experiment: K-37 fluorescence in LDL with and without octanoate (Example 2); type: binding
Protocol: The dye K-37 was added at a concentration of 0.5 mM to LDL at a total lipid concentration of 5 mM, in the presence and absence of 50 mg/ml HSA. Measurements were made with and without the addition of 0.1 M sodium octanoate, which acted as a ligand binding inhibitor.

[3] = Quenching of Nile Red residual fluorescence in solution (Example 6); type: physicochemical
Source text: (§1) This lead the inventors to realise that the HDL/Nile red assay may be improved further by using an additional blocker. They tried agents that block the drug binding domain of HSA. […] The benzoic acid has the added bonus of quenching the Nile Red residual fluorescence in solution by about 20%.

[4] = biological target: drug binding domain of HSA (Homo sapiens, UniProt P02768); experiment: Displacement of Nile Red from HSA by agents that block the drug binding domain (Example 6); details: agent at about 5 mM, without affecting the lipoprotein fluorescence
Source text: as §1

LDL [5] = experiment: Nile Red fluorescence in LDL with and without octanoate (Example 3); type: binding
[6] = biological target: T1, Human Serum Albumin (HSA); experiment: Nile Red fluorescence with HSA with and without octanoate (Example 3); type: binding
HDL = experiment: Nile Red fluorescence in HDL compared with VLDL and LDL at different excitation wavelengths (Example 6); design: species or system human
Protocol: Further optimisation of the assay according to the invention Further tests were performed on human serum samples to investigate optimum excitation wavelengths for inducing fluorescence indicative of HDL levels according to the method of the invention.
The inventors tested a number of wavelengths and have established that, when using Nile Red, that an excitation wavelength of 600 nm and an emission wavelength of 620 nm gives optimal results (see FIG. 15). The inventors were surprised that this excitation wavelength was optimal because it is to the very long wavelength edge of the spectrum.
For certain samples the inventors observed a noisier plot with an excitation wavelength of 460 nm and an emission wavelength of 620 nm (see FIG. 16).
The inventors believe that Nile Red is about 5 times more fluorescent in HDL than VLDL and LDL when excited at 600 nm as opposed to excitation at 460 nm where it is only about 2 times more fluorescent. This gives a better signal to noise when subtracting from the standard curve of LDL plus VLDL.

T1 sequence (P02768 25-609): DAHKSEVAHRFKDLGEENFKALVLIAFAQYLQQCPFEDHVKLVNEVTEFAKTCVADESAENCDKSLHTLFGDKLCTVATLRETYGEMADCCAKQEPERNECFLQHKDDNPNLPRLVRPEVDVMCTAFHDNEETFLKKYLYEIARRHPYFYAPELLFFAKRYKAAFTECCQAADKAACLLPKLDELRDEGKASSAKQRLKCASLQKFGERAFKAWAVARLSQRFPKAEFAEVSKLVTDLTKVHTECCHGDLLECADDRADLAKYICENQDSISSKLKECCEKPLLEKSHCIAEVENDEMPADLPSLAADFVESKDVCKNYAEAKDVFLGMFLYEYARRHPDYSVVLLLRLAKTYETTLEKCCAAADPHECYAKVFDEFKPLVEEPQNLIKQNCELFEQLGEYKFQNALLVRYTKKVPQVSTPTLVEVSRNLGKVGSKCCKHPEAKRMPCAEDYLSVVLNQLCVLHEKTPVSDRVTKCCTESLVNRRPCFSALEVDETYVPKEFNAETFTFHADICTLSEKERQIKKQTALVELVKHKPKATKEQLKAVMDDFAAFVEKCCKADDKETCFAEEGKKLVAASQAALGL
Sequence of drug binding domain of HSA (P02768 25-609): as above

- Fluorescence Intensity ([1]; 0.5 mM K-37 plus 50 mg/ml HSA + 0.1 M sodium octanoate): 3600 units
- Fluorescence Intensity ([1]; 0.5 mM K-37 plus 50 mg/ml HSA, no octanoate): 79300 units
Structure (SMILES): CN(C)c1ccc(/C=C/C(=O)c2ccc(S(=O)(=O)C(F)F)cc2)cc1 [K-37, 4-dimethylamino-4′-difluoromethyl-sulphonyl-benzylidene-acetophenone]
- Fluorescence Intensity (LDL [2]; 0.5 mM K-37 plus 5 mM LDL + 0.1 M sodium octanoate): 209700 units
- Fluorescence Intensity (LDL [2]; 0.5 mM K-37 plus 5 mM LDL, no octanoate): 213500 units

Structure (SMILES): O=C(O)c1ccccc1 [benzoic acid]
- quenching of Nile Red residual fluorescence in solution [3]: about 20%
- displacement of Nile Red from HSA [4]: worked to displace the Nile Red from HSA

Structure (SMILES): CCCCCCCC(=O)[O-].[Na+] [octanoate, sodium octanoate]
- effect of octanoate on Nile Red fluorescence in LDL (LDL [5]; 50 mM octanoate, 5 mM LDL, 0.5 mM Nile Red): little effect
- effect of octanoate on K-37 fluorescence in LDL (LDL [2]; 0.1 M sodium octanoate, 5 mM LDL, 0.5 mM K-37): little effect

- Fluorescence Intensity ([6]; 0.5 mM Nile Red plus 50 mg/ml HSA + 50 mM octanoate): 9.118 units
- Fluorescence Intensity ([6]; 0.5 mM Nile Red plus 50 mg/ml HSA, no octanoate): 58.905 units
Structure (SMILES): CCN(CC)c1ccc2nc3c4ccccc4c(=O)cc-3oc2c1 [Nile Red]
- Fluorescence Intensity (LDL [5]; 0.5 mM Nile Red plus 5 mM LDL + 50 mM octanoate): 183.786 units
- Fluorescence Intensity (LDL [5]; 0.5 mM Nile Red plus 5 mM LDL, no octanoate): 187.532 units
- times more fluorescent in HDL than VLDL and LDL (HDL; excitation at 460 nm): about 2 times
- times more fluorescent in HDL than VLDL and LDL (HDL; excited at 600 nm): about 5 times

Source: patent US20080118990A1, “Assay For Lipoproteins Using Lumiphore K-37” (Science and Technology Facilities Council, priority 2004, published 2008)
